Experimental data as given in patent US20250230193A1, “CYCLIC COMPOUND HAVING SELECTIVE KRAS INHIBITORY EFFECT ON HRAS AND NRAS” (CHUGAI SEIYAKU KABUSHIKI KAISHA, priority 2022, published 2025).
*1 amine or outer side, *2 acyl side, *3 side chain or, on linkers, in order; H or OH if unused. Where a SMILES comes first, the peptide text is derived from it. Bridges are numbered along the chain shown (N, C = ends). [ ]: non-standard residue; d: D form. The star is where a group is joined. hPhe(3,5-F2-4-CF3) = N[C@@H](CCc1cc(F)c(C(F)(F)F)c(F)c1)C(=O)O; hPhe(3-Cl-4-CF3) = N[C@@H](CCc1ccc(C(F)(F)F)c(Cl)c1)C(=O)O; NPrPhe(4-CF3) = CCCN[C@@H](Cc1ccc(C(F)(F)F)cc1)C(=O)O; X40 = CCCN([C@@H](Cc1ccc(OC)cc1)C(=O)[*:2])[*:1]; NMeGly(cPent) = CN[C@H](C(=O)O)C1CCCC1; Pro(4,4-F2) = O=C(O)[C@@H]1CC(F)(F)CN1; Ac4c(3,3-F2) = NC1(C(=O)O)CC(F)(F)C1; NMeD = CN[C@@H](CC(=O)O)C(=O)O; NMeL = CN[C@@H](CC(C)C)C(=O)O; Morpholide = C1CN(*)CCO1; Ac5c = NC1(C(=O)O)CCCC1; Aze = O=C(O)[C@@H]1CCN1; Ac4c = NC1(C(=O)O)CCC1; NEtG = CCNCC(=O)O; Sar = CNCC(=O)O

How the values were obtained:
[1] = biological target: GDP-bound HRAS wild-type protein (Homo sapiens, UniProt P01112); experiment: Binding to HRAS by surface plasmon resonance (SPR), Single Cycle Kinetics; details: SPR
Chain of GDP-bound HRAS wild-type protein (P01112 whole entry): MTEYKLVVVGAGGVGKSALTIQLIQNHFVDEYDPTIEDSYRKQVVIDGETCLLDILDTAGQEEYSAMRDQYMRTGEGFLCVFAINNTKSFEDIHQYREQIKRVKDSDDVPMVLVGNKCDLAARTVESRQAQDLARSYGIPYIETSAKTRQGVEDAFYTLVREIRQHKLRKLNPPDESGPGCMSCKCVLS

[2] = biological target: GDP-bound NRAS wild-type protein (Homo sapiens, UniProt P01111); experiment: Binding to NRAS by surface plasmon resonance (SPR), Single Cycle Kinetics; details: SPR
Chain of GDP-bound NRAS wild-type protein (P01111 whole entry): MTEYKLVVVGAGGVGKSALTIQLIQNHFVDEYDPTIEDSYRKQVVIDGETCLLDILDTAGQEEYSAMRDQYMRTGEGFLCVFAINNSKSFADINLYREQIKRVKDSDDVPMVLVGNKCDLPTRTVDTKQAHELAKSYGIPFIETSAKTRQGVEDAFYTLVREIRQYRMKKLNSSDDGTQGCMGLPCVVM

SMILES | HRAS/KRAS (ratio of KD for GDP-bound HRAS wild-type to KD for KRAS) ([1]; KD ratio HRAS/KRAS) | NRAS/KRAS (ratio of KD for GDP-bound NRAS wild-type to KD for KRAS) ([2]; KD ratio NRAS/KRAS) | also measured
CCCN1C(=O)[C@@H]2CCN2C(=O)CN(C)C(=O)[C@H]([C@@H](C)CC)NC(=O)[C@H](CC(C)C)N(C)C(=O)C[C@@H](C(=O)N2CCOCC2)N(C)C(=O)[C@H](C2CCCC2)N(C)C(=O)C2(CCCC2)NC(=O)[C@@H]2CC(F)(F)CN2C(=O)[C@H](CCc2ccc(C(F)(F)F)c(Cl)c2)NC(=O)CN(C)C(=O)[C@@H]1Cc1ccc(C(F)(F)F)cc1 [PP0408] ([NMeL]I[Sar][Aze][NPrPhe(4-CF3)][Sar][hPhe(3-Cl-4-CF3)][Pro(4,4-F2)][Ac5c][NMeGly(cPent)][NMeD]-Morpholide; lactam N-11) | B (a compound having 3 or more and less than 10 is denoted as B) | C (A compound having a KD ratio of 0.1 or more and less than 3 is denoted as C) | –
CCCN1C(=O)CN(C)C(=O)CN(C)C(=O)[C@H]([C@@H](C)CC)NC(=O)[C@H](CC(C)C)N(C)C(=O)C[C@@H](C(=O)N(C)C)N(C)C(=O)[C@H](C2CCCC2)N(C)C(=O)C2(CC(F)(F)C2)NC(=O)[C@@H]2CCCN2C(=O)[C@H](CCc2cc(F)c(C(F)(F)F)c(F)c2)NC(=O)CN(C)C(=O)[C@@H]1Cc1ccc(C(F)(F)F)cc1 [PP0745] ([NMeL]I[Sar][Sar][NPrPhe(4-CF3)][Sar][hPhe(3,5-F2-4-CF3)]P[Ac4c(3,3-F2)][NMeGly(cPent)][NMeD]-NMe2; lactam N-11) | – | – | HRAS/KRAS (ratio of KD value with respect to GDP-bound HRAS wild-type protein to KD value with respect to KRAS) ([1]; KD ratio HRAS/KRAS): C (A compound having a KD ratio of 0.1 or more and less than 3 is denoted as C); NRAS/KRAS (ratio of KD value with respect to GDP-bound NRAS wild-type protein to KD value with respect to KRAS) ([2]; KD ratio NRAS/KRAS): B (a compound having 3 or more and less than 10 is denoted as B)
CC[C@H](C)[C@@H]1NC(=O)[C@H](COC)N(C)C(=O)C[C@@H](C(=O)N(C)C)N(C)C(=O)[C@H](C2CCCC2)N(C)C(=O)C2(CC(C)(C)C2)NC(=O)[C@@H]2C[C@H](C)CN2C(=O)[C@H](CCc2ccc(C(F)(F)F)c(OC)c2)NC(=O)CN(C)C(=O)[C@H](Cc2ccc(C)cc2)N2CC/C=C\C[C@@H](C2=O)N(C)C(=O)CN(C)C1=O [PP2385] | – | – | HRAS/KRAS (ratio of KD value with respect to HRAS to KD value with respect to KRAS) ([1]; GDP-bound HRAS wild-type vs GDP-bound KRAS wild-type): B (a compound having 3 or more and less than 10 is denoted as B); NRAS/KRAS (ratio of KD value with respect to NRAS to KD value with respect to KRAS) ([2]; GDP-bound NRAS wild-type vs GDP-bound KRAS wild-type): A (a compound having 10 or more and less than 20 is denoted as A)
CCCN1C(=O)CN(C)C(=O)CN(CC)C(=O)[C@H]([C@@H](C)CC)NC(=O)[C@H](CC(C)C)N(C)C(=O)C[C@@H](C(=O)N2CCOCC2)N(C)C(=O)[C@H](C2CCCC2)N(C)C(=O)C2(CCC2)NC(=O)[C@@H]2CCCN2C(=O)[C@H](CCc2ccc(C(F)(F)F)c(Cl)c2)NC(=O)CN(C)C(=O)[C@@H]1Cc1ccc(C(F)(F)F)cc1 [PP0398] ([NMeL]I[NEtG][Sar][NPrPhe(4-CF3)][Sar][hPhe(3-Cl-4-CF3)]P[Ac4c][NMeGly(cPent)][NMeD]-Morpholide; lactam N-11) | C (A compound having a KD ratio of 0.1 or more and less than 3 is denoted as C) | B (a compound having 3 or more and less than 10 is denoted as B) | –
CCCN1C(=O)CN(C)C(=O)CN(C)C(=O)[C@H]([C@@H](C)CC)NC(=O)[C@H](CC(C)C)N(C)C(=O)C[C@@H](C(=O)N2CCOCC2)N(C)C(=O)[C@H](C2CCCC2)N(C)C(=O)C2(CCCC2)NC(=O)[C@@H]2CCCN2C(=O)[C@H](CCc2ccc(C(F)(F)F)c(Cl)c2)NC(=O)CN(C)C(=O)[C@@H]1Cc1ccc(OC)cc1 [PP0135] ([NMeL]I[Sar][Sar][X40][Sar][hPhe(3-Cl-4-CF3)]P[Ac5c][NMeGly(cPent)][NMeD]-Morpholide; lactam N-11) | C (A compound having a KD ratio of 0.1 or more and less than 3 is denoted as C) | B (a compound having 3 or more and less than 10 is denoted as B) | –
